Like-named read-outs stand apart in the source and are kept apart here. One block for each compound: values may come before it.
Legend:
clinical = settings: human, in vivo
Experimental: (§1) A non-randomized phase I clinical trial was conducted at 4 institutions in the US and Taiwan.
(§2) Patients were included in this trial if they are over the age of 18, with advanced cancer and the ECOG performance status is 0 or 1. […] Patients were excluded from the study if they have previously received more than 3 regimens of chemotherapy, or if they have received chemotherapy or radiotherapy within 4 weeks of the trial recruitment.
(§3) Eligible patients were given the pharmaceutical composition of the present invention, comprising a mixture of TLC388HCl and mPEG2000-DSPE in a molar ratio of 1:0.7 to 1:0.9 (known as Lipotecan®). […] The pharmaceutical composition was administered as a 30-min IV infusion, on days 1, 8, and 15 of a 28-day cycle (i.e. 3 IV infusions per 28-day cycle).
(§4) Serum samples were collected from the patients for pharmacokinetic analysis on day 1, day 8 and day 15 of Cycles 1 and 2, at the following times:
(§5) Post IV infusion: (Day 1 and 8 of Cycle 1): 33 min; 40 min; 50 min; 1 h; 1 h 30 min; 2 h; 4 h and 8 h. Post IV infusion (Day 15 of Cycle 1 and Day 1, 8, and 15 of Cycle 2): 4 h. Patients were assessed every 8 weeks, after 2 cycles of treatments.
(§6) During the 2-cycle study period, the patients were examined regularly for the following outcomes: • Side effect/DLT; • The pK profiles of the (S,S) and (S,R) diastereomers of TLC388HCl, its 3 metabolites (TLC-U1, TLC-U2 and Topotecan) on day 1 and day 8 of the treatment cycle; and • Anti-cancer efficacy.

[1] = human, in vivo; for time at which peak plasma concentrations (Cmax) were achieved / time of rapid rise of the metabolites in the serum after starting the infusion: iv
Experimental: as §1, §2, §3, §4, §5, §6

topoisomerase I = biological target: T1, topoisomerase I (Homo sapiens, UniProt P11387); assay: Topoisomerase I inhibition; assay type: biochemical
T1 sequence (P11387 1-765): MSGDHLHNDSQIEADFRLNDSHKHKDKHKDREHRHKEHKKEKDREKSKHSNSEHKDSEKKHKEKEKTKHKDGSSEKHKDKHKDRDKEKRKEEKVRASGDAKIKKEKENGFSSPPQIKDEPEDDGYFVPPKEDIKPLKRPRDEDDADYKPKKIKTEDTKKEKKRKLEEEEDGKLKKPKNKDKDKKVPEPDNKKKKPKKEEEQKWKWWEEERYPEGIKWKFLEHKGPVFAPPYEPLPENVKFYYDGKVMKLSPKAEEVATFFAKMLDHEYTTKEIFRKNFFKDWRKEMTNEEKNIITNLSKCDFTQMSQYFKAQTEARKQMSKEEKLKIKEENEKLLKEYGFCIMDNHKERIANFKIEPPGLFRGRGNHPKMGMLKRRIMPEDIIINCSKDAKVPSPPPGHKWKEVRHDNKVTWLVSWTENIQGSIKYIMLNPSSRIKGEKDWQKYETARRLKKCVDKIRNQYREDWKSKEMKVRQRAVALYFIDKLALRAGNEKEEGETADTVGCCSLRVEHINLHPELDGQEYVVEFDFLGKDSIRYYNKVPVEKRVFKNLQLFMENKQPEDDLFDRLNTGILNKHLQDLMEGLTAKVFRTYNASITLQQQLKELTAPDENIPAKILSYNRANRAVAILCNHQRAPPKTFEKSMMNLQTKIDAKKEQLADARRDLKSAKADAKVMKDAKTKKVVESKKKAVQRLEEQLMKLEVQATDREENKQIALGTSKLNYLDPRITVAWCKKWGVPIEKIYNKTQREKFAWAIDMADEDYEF

SMILES: CC[C@@]1(O)C(=O)OCc2c1cc1n(c2=O)Cc2cc3c(CN(C)C)c(O)ccc3nc2-1 [Topotecan, reference compound]
AUC0-t (clinical; 1.3 mg/m2, AUC0-t): 5.32 ng·h/mL
Cmax (clinical; 1.3 mg/m2, Cmax): 1.06 ng/mL
Tmax (clinical; 1.3 mg/m2, Tmax): 0.906 h
half-life (clinical; 1.3 mg/m2, t1/2): 4.32 h
AUC0-t (clinical; 1.5 mg/m2, AUC0-t): 6.01 ng·h/mL
Cmax (clinical; 1.5 mg/m2, Cmax): 1.52 ng/mL
Tmax (clinical; 1.5 mg/m2, Tmax): 0.628 h
half-life (clinical; 1.5 mg/m2, t1/2): 4.76 h
AUC0-t (clinical; 3 mg/m2, AUC0-t): 11.7 ng·h/mL
Cmax (clinical; 3 mg/m2, Cmax): 2.1 ng/mL
half-life (clinical; 3 mg/m2, t1/2): 7.03 h
AUC0-t (clinical; 6 mg/m2, AUC0-t): 21.5 ng·h/mL
Cmax (clinical; 6 mg/m2, Cmax): 4.83 ng/mL
Tmax (clinical; 6 mg/m2, Tmax): 0.989 h
half-life (clinical; 6 mg/m2, t1/2): 6.87 h
AUC0-t (clinical; 9 mg/m2, AUC0-t): 27.6 ng·h/mL
Cmax (clinical; 9 mg/m2, Cmax): 6.38 ng/mL
Tmax (clinical; 9 mg/m2, Tmax): 1.15 h
half-life (clinical; 9 mg/m2, t1/2): 7.7 h
AUC0-t (clinical; 13.5 mg/m2): 37.6 ng·h/mL
Cmax (clinical; 13.5 mg/m2): 8.71 ng/mL
half-life (clinical; 13.5 mg/m2): 6.29 h
half-life (clinical; 20 mg/m2): 4.65 h
AUC0-t (clinical; 20 mg/m2, AUC0-t): 47.3 ng·h/mL
Cmax (clinical; 20 mg/m2, Cmax): 11.3 ng/mL
Tmax (clinical; 20 mg/m2, Tmax): 0.483 h
half-life (clinical; 20 mg/m2, t1/2): 5.07 h
half-life (clinical; 30 mg/m2): 4.63 h
AUC0-t (clinical; 30 mg/m2, AUC0-t): 97 ng·h/mL
Tmax (clinical; 30 mg/m2, Tmax): 1.54 h
half-life (clinical; 30 mg/m2, t1/2): 4.06 h
AUC0-t (clinical; 35 mg/m2, AUC0-t): 176 ng·h/mL
Cmax (clinical; 35 mg/m2, Cmax): 51.3 ng/mL
Tmax (clinical; 35 mg/m2, Tmax): 1 h
half-life (clinical; 35 mg/m2, t1/2): 7.66 h
Tmax (clinical; 40 mg/m2, Tmax): 0.85 h
half-life (clinical; 40 mg/m2, t1/2): 5.84 h
half-life (clinical; 50 mg/m2): 5.51 h
AUC0-t (clinical; 50 mg/m2, AUC0-t): 208 ng·h/mL
Cmax (clinical; 50 mg/m2, Cmax): 37.5 ng/mL
Tmax (clinical; 50 mg/m2, Tmax): 0.903 h
half-life (clinical; 50 mg/m2, t1/2): 7.39 h
AUC0-t (clinical; 60 mg/m2, AUC0-t): 215 ng·h/mL
Cmax (clinical; 60 mg/m2, Cmax): 57.1 ng/mL
Tmax (clinical; 60 mg/m2, Tmax): 0.837 h
half-life (clinical; 60 mg/m2, t1/2): 5.18 h
Tmax (clinical; 60 mg/m2, tmax): 0.93 ± 0.82 h
half-life (clinical; T1/2): > 2.5 h
Dose-normalized AUClast [1]: 8.52 ± 3.09 nM*h/(mg/m^2)
Dose-normalized Cmax [1]: 1.95 ± 1.04 nM/(mg/m^2)
difference between PK profiles on Day 1 and Day 8 [1]: no significant difference
dose proportionality of exposure [1]: roughly dose proportional
AUC0-t ([1]; 3 mg/m2): 7.866 ng·h/mL
AUC0-t ([1]; 6 mg/m2): 21.656 ng·h/mL
AUC0-t ([1]; 9 mg/m2): 37.978 ng·h/mL
AUC0-t ([1]; 20 mg/m2): 44.026 ng·h/mL
AUC0-t ([1]; 30 mg/m2): 120.74 ng·h/mL
AUC0-t ([1]; 35 mg/m2): 190.91 ng·h/mL
Cmax ([1]; 35 mg/m2): 58.075 ng/mL
Tmax ([1]; 35 mg/m2): 0.604 (0.156) hr
t1/2 ([1]; 35 mg/m2): 6.177 (3.376) hr
AUC0-t ([1]; 50 mg/m2): 207.30 ng·h/mL
AUC0-t ([1]; 60 mg/m2): 207.43 ng·h/mL
time at which peak plasma concentrations (Cmax) were achieved [1]: within one hour
time of rapid rise of the metabolites in the serum after starting the infusion [1]: ≤ 15 min

topoisomerase I inhibition (topoisomerase I): weak topoisomerase I Inhibitors
AUC0-t (clinical; 1.5 mg/m2, AUC0-t): 13 ng·h/mL
Cmax (clinical; 1.5 mg/m2, Cmax): 11.2 ng/mL
Tmax (clinical; 1.5 mg/m2, Tmax): 0.628 h
half-life (clinical; 1.5 mg/m2, t1/2): 2.79 h
AUC0-t (clinical; 3 mg/m2, AUC0-t): 24.6 ng·h/mL
Cmax (clinical; 3 mg/m2, Cmax): 17.1 ng/mL
Tmax (clinical; 3 mg/m2, Tmax): 0.467 h
half-life (clinical; 3 mg/m2, t1/2): 2.65 h
AUC0-t (clinical; 6 mg/m2, AUC0-t): 44.3 ng·h/mL
Cmax (clinical; 6 mg/m2, Cmax): 28.5 ng/mL
Tmax (clinical; 6 mg/m2, Tmax): 0.467 h
half-life (clinical; 6 mg/m2, t1/2): 2.9 h
AUC0-t (clinical; 9 mg/m2, AUC0-t): 48.6 ng·h/mL
Cmax (clinical; 9 mg/m2, Cmax): 37.8 ng/mL
Tmax (clinical; 9 mg/m2, Tmax): 0.563 h
half-life (clinical; 9 mg/m2, t1/2): 3.68 h
AUC0-t (clinical; 13.5 mg/m2): 99.1 ng·h/mL
Cmax (clinical; 13.5 mg/m2): 56.3 ng/mL
Tmax (clinical; 13.5 mg/m2): 0.308 h
half-life (clinical; 13.5 mg/m2): 2.85 h
AUC0-t (clinical; 20 mg/m2, AUC0-t): 112 ng·h/mL
Cmax (clinical; 20 mg/m2, Cmax): 87.4 ng/mL
Tmax (clinical; 20 mg/m2, Tmax): 0.405 h
half-life (clinical; 20 mg/m2, t1/2): 2.95 h
AUC0-t (clinical; 30 mg/m2, AUC0-t): 163 ng·h/mL
Cmax (clinical; 30 mg/m2, Cmax): 105 ng/mL
Tmax (clinical; 30 mg/m2, Tmax): 0.454 h
half-life (clinical; 30 mg/m2, t1/2): 2.66 h
AUC0-t (clinical; 35 mg/m2, AUC0-t): 340 ng·h/mL
Cmax (clinical; 35 mg/m2, Cmax): 196 ng/mL
Tmax (clinical; 35 mg/m2, Tmax): 0.638 h
half-life (clinical; 35 mg/m2, t1/2): 5.33 h
AUC0-t (clinical; 40 mg/m2, AUC0-t): 283 ng·h/mL
Tmax (clinical; 40 mg/m2, Tmax): 0.392 h
half-life (clinical; 40 mg/m2, t1/2): 2.94 h
AUC0-t (clinical; 50 mg/m2, AUC0-t): 365 ng·h/mL
Cmax (clinical; 50 mg/m2, Cmax): 242 ng/mL
Tmax (clinical; 50 mg/m2, Tmax): 0.436 h
half-life (clinical; 50 mg/m2, t1/2): 2.9 h
AUC0-t (clinical; 60 mg/m2, AUC0-t): 421 ng·h/mL
Cmax (clinical; 60 mg/m2, Cmax): 347 ng/mL
Tmax (clinical; 60 mg/m2, Tmax): 0.357 h
half-life (clinical; 60 mg/m2, t1/2): 2.91 h
Tmax (clinical; 60 mg/m2, tmax): 0.45 ± 0.17 h
half-life (clinical; T1/2): > 2.5 h
Tmax (clinical; Tmax): < 1 h
Cmax and AUCo-t of TLC-U1 relative to TLC-U2 [1]: 3-4 times
Cmax and AUCo-t of TLC-U1 relative to topotecan [1]: approximately 2 times
Dose-normalized AUClast [1]: 14.49 ± 4.46 nM*h/(mg/m^2)
Dose-normalized Cmax [1]: 10.15 ± 3.87 nM/(mg/m^2)
difference between PK profiles on Day 1 and Day 8 [1]: no significant difference
dose proportionality of exposure [1]: roughly dose proportional
AUC0-t ([1]; 1.5 mg/m2): 10.869 (1.365) hr · ng/mL
Cmax ([1]; 1.5 mg/m2): 6.897 (1.325) ng/mL
Tmax ([1]; 1.5 mg/m2): 0.483 (0.000) hr
t1/2 ([1]; 1.5 mg/m2): 2.687 (0.329) hr
AUC0-t ([1]; 3 mg/m2): 16.705 (4.893) hr · ng/mL
AUC0-t ([1]; 6 mg/m2): 46.533 (10.74) hr · ng/mL
AUC0-t ([1]; 9 mg/m2): 54.481 (10.70) hr · ng/mL
AUC0-t ([1]; 20 mg/m2): 101.46 (37.00) hr · ng/mL
AUC0-t ([1]; 30 mg/m2): 190.59 (33.45) hr · ng/mL
AUC0-t ([1]; 35 mg/m2): 406.54 (77.86) hr · ng/mL
Cmax ([1]; 35 mg/m2): 327.75 (216.8) ng/mL
Tmax ([1]; 35 mg/m2): 0.546 (0.087) hr
t1/2 ([1]; 35 mg/m2): 4.064 (1.658) hr
AUC0-t ([1]; 40 mg/m2): 285.94 (207.9) hr · ng/mL
AUC0-t ([1]; 50 mg/m2): 349.27 (131.8) hr · ng/mL
AUC0-t ([1]; 60 mg/m2): 417.98 (54.75) hr · ng/mL
time at which peak plasma concentrations (Cmax) were achieved [1]: within one hour
time of rapid rise of the metabolites in the serum after starting the infusion [1]: ≤ 15 min
SMILES: CC[C@@]1(OC(=O)[C@@H](C)O)C(=O)OCc2c1cc1n(c2=O)Cc2cc3c(CN(C)C)c(O)ccc3nc2-1 [TLC-U1, S,R-topotecan lactate]

Source: patent publication US20140135357A1, “DOSE REGIME FOR CAMPTOTHECIN DERIVATIVES” (Taiwan Liposome Company, Ltd., priority 2012, published 2014)
